Assay results from patent publication US12139477B2, “Compounds, salts thereof and methods for treatment of diseases” (ACADIA PHARMACEUTICALS INC., priority 2017, dated 2024).

Molecular target: 5HT2A (Homo sapiens, UniProt P28223)
Assay: Receptor Selection and Amplification (R-SAT) functional assay
Type: cell-based
Design: expressed in transfected cells; host or cells: NIH3T3 cells, pSI mammalian expression vector
Conditions: NIH3T3 cells; Ki from IC50 by Cheng and Prussoff
Text: Receptor Selection and Amplification (R-SAT) Assays. […] The IC50 determined in the RSAT assay was converted into a Ki value using the method of Cheng and Prussoff, Biochem Pharmacol., 1973 Dec. 1; 22(23):3099-108. pKi is the negative of the log(Ki).

5HT2A, sequence (P28223 whole entry): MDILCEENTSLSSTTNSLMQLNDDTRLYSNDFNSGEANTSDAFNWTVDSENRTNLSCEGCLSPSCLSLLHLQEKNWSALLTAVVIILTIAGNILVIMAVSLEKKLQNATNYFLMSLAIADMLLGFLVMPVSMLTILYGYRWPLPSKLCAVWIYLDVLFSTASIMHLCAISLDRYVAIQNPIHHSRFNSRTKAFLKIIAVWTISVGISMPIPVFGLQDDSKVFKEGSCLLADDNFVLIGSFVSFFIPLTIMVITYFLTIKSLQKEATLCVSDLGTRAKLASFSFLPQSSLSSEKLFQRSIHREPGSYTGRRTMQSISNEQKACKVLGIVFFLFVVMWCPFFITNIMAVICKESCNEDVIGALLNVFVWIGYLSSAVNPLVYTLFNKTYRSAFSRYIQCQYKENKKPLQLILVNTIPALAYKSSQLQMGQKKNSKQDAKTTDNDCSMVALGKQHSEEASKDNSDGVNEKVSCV

Question: With CCCCOc1ccc(CNC(=O)N(Cc2ccc(F)cc2F)C2CCNCC2)cc1.CCCCOc1ccc(CNC(=O)N(Cc2ccc(F)cc2F)C2CCNCC2)cc1.O=C(O)C(O)C(O)C(=O)O [Example 123, 3-[(4-butoxyphenyl)methyl]-1-[(2,4-difluorophenyl)methyl]-1-(piperidin-4-yl)urea; Hemitartrate] as the compound, how does the “5-HT2a (pKi) (R-SAT)” value read?
Answer: 7.8

Question: Which “5-HT2a (pKi) (R-SAT)” value does the source give for COc1ccc(CNC(=O)N(Cc2ccc(F)cc2F)C2CCNCC2)cc1.COc1ccc(CNC(=O)N(Cc2ccc(F)cc2F)C2CCNCC2)cc1.O=C(O)C(O)C(O)C(=O)O [Example 126, 1-[(2,4-difluorophenyl)methyl]-3-[(4-methoxyphenyl)methyl]-1-(piperidin-4-yl)urea; Hemitartrate] here?
Answer: 8.1

Same assay, conditions: NIH3T3 cells; Ki from IC50 by Cheng and Prussoff; read-out: 5-HT2a (pKi) (R-SAT) (converted)

Question: Which Ki does the source give for CC(C)Oc1ccc(CNC(=O)N(Cc2ccc(F)cc2Cl)C2CCNCC2)cc1 [Example 110, 1-[(2-chloro-4-fluorophenyl)methyl]-1-(piperidin-4-yl)-3-{[4-(propan-2-yloxy)phenyl]methyl}urea; Trifluoroacetic Acid] here?
Answer: 25.1 nM

Question: C[C@H](c1ccc(F)cc1F)N(C(=O)NCc1ccc(OC2CC2)cc1)C1CCN(C)CC1 [Example 47] was tested. Which Ki did it give?
Answer: 126 nM

Question: With CN1CCC(N(Cc2ccc(F)cc2F)C(=O)NCc2ccc(COCCO)c(F)c2)CC1 [Example 88, 1-[(2,4-difluorophenyl)methyl]-3-({3-fluoro-4-[(2-hydroxyethoxy)methyl]phenyl}methyl)-1-(1-methylpiperidin-4-yl)urea; Trifluoroacetic Acid] as the compound, how does the Ki read?
Answer: 63.1 nM

Question: With CC(C)COc1ccc(CNC(=O)N(Cc2ccc(F)cc2Cl)C2CCNCC2)cc1 [Example 109, 1-[(2-chloro-4-fluorophenyl)methyl]-3-{[4-(2-methylpropoxy)phenyl]methyl}-1-(piperidin-4-yl)urea; Trifluoroacetic Acid] as the compound, how does the Ki read?
Answer: 25.1 nM

Question: With COc1cc(F)ccc1CN(C(=O)NCc1ccc(OCC(C)C)cc1)C1CCN(C)CC1 [Example 91, 1-[(4-fluoro-2-methoxyphenyl)methyl]-1-(1-methylpiperidin-4-yl)-3-{[4-(2-methylpropoxy)phenyl]methyl}urea; Trifluoroacetic Acid] as the compound, how does the Ki read?
Answer: 15.8 nM

Question: CC(C)COc1ccc(CNC(=O)N(Cc2c(F)cc(Cl)cc2F)C2CCN(C)CC2)cc1 [Example 71] was tested. Which Ki did it give?
Answer: 12.6 nM

Question: Which Ki does the source give for COc1ccc(CN(C(=O)NCc2ccc(OC(C)C)cc2)C2CCN(C)CC2)c(F)c1 [Example 122, 1-[(2-fluoro-4-methoxyphenyl)methyl]-1-(1-methylpiperidin-4-yl)-3-{[4-(propan-2-yloxy)phenyl]methyl}urea; Trifluoroacetic Acid] here?
Answer: 7.94 nM

Question: For CN1CCC(N(Cc2ccc(F)cc2F)C(=O)NCc2ccc3c(c2)OCO3)CC1 [Example 128, 3-[(2H-1,3-benzodioxol-5-yl)methyl]-1-[(2,4-difluorophenyl)methyl]-1-(1-methylpiperidin-4-yl)urea], which Ki is on record?
Answer: 7.94 nM

Question: COc1cc(F)c(CN(C(=O)NCc2ccc(OC(C)C)cc2)C2CCN(C)CC2)c(F)c1 [Example 136, 1-[(2,6-difluoro-4-methoxyphenyl)methyl]-1-(1-methylpiperidin-4-yl)-3-{[4-(propan-2-yloxy)phenyl]methyl}urea; Trifluoroacetic Acid] was tested. Which Ki did it give?
Answer: 7.94 nM

Question: How did the Ki turn out when CC(C)Oc1ccc(CNC(=O)N(Cc2ccc(F)cc2F)[C@@H]2CCN3CCC[C@H]3C2)cc1 [Example 80, 1-[(7R,8aS)-octahydroindolizin-7-yl]-1-[(2,4-difluorophenyl)methyl]-3-{[4-(propan-2-yloxy)phenyl]methyl}urea; Trifluoroacetic Acid] was run?
Answer: 2.51 nM

Question: O=C(O)C(F)(F)F.[2H]C([2H])([2H])C(Oc1ccc(CNC(=O)N(Cc2ccc(F)cc2F)C2CCN(C)CC2)cc1)(C([2H])([2H])[2H])C([2H])([2H])[2H] [Example 46] was tested. Which Ki did it give?
Answer: 0.794 nM

Question: How did the Ki turn out when CC(C)COc1ccc(CNC(=O)N(Cc2ccc(F)cc2OCc2ccccc2)C2CCN(C)CC2)cc1 [Example 13b, 1-{[2-(benzyloxy)-4-fluorophenyl]methyl}-1-(1-methylpiperidin-4-yl)-3-{[4-(2-methylpropoxy)phenyl]methyl}urea] was run?
Answer: 63.1 nM

Question: With CC(C)Oc1ccc(CNC(=O)N(Cc2ccc(F)c(F)c2F)C2CCNCC2)cc1 [Example 132, 1-(piperidin-4-yl)-3-{[4-(propan-2-yloxy)phenyl]methyl}-1-[(2,3,4-trifluorophenyl)methyl]urea; Trifluoroacetic Acid] as the compound, how does the Ki read?
Answer: 79.4 nM

Question: COc1ccc(CNC(=O)N(Cc2ccc(F)cc2F)C2CCN(C)CC2)c(C(F)(F)F)c1 [Example 53] was tested. Which Ki did it give?
Answer: 25.1 nM

Question: Which Ki does the source give for CN1CCC(N(Cc2ccc(F)cc2F)C(=O)NCc2ccc(F)cc2)CC1 [Example 49] here?
Answer: 6.31 nM

Question: COc1ccc(CNC(=O)N(Cc2ccc(F)cc2F)C2CCN(C)CC2)c(Cl)c1 [Example 51] was tested. Which Ki did it give?
Answer: 25.1 nM

Question: For COc1ccc(CN(C(=O)NCc2ccc(OCC(C)C)cc2)C2CCN(C)CC2)c(Cl)c1 [Example 105, 1-[(2-chloro-4-methoxyphenyl)methyl]-1-(1-methylpiperidin-4-yl)-3-{[4-(2-methylpropoxy)phenyl]methyl}urea; Trifluoroacetic Acid], which Ki is on record?
Answer: 100 nM

Question: CC(C)Oc1ccc(CNC(=O)N(Cc2ccc(F)cc2F)C2CCCN(C)CC2)cc1 (stereo not shown) [Example 78, 1-[(2,4-difluorophenyl)methyl]-1-(1-methylazepan-4-yl)-3-{[4-(propan-2-yloxy)phenyl]methyl}urea; Trifluoroacetic Acid] was tested. Which Ki did it give?
Answer: 6.31 nM

Question: Which Ki does the source give for CC(C)COc1ccc(CNC(=O)N(Cc2ccc(C(F)(F)F)cc2F)C2CCN(C)CC2)cc1 [Example 68] here?
Answer: 20 nM

Question: How did the Ki turn out when CC(C)COc1ccc(CNC(=O)N(Cc2ccc(C(F)(F)F)cc2Cl)C2CCN(C)CC2)cc1 [Example 67] was run?
Answer: 79.4 nM

Question: For CN1CCC(N(Cc2ccc(F)cc2F)C(=O)NCc2ccc3c(ccn3C)c2)CC1 [Example 31], which Ki is on record?
Answer: 6.31 nM

Question: With COc1ccc(CNC(=O)N(Cc2ccc(F)cc2F)C2CCN(C)CC2)cc1C#N [Example 48] as the compound, how does the Ki read?
Answer: 100 nM

Question: With CN1CCC(N(Cc2ccc(F)cc2F)C(=O)NCc2ccc(Oc3ccccc3)cc2)CC1 [Example 120, 3-[(2,4-difluorophenyl)methyl]-3-(1-methylpiperidin-4-yl)-1-[(4-phenoxyphenyl)methyl]urea] as the compound, how does the Ki read?
Answer: 7.94 nM

Question: Which Ki does the source give for Cc1cc(F)ccc1CN(C(=O)NCc1ccc(OCC(C)C)cc1)C1CCN(C)CC1 [Example 104, 1-[(4-fluoro-2-methylphenyl)methyl]-1-(1-methylpiperidin-4-yl)-3-{[4-(2-methylpropoxy)phenyl]methyl}urea; Trifluoroacetic Acid] here?
Answer: 39.8 nM

Question: For CCCOc1ccc(CNC(=O)N(Cc2ccc(F)cc2F)C2CCN(C)CC2)cc1 [Example 140, 1-[(2,4-difluorophenyl)methyl]-1-(1-methylpiperidin-4-yl)-3-[(4-propoxyphenyl)methyl]urea], which Ki is on record?
Answer: 3.16 nM

Question: CC(C)COc1ccc(CNC(=O)N(Cc2ccc(F)cc2OC(F)(F)F)C2CCN(C)CC2)cc1 [Example 103, 1-{[4-fluoro-2-(trifluoromethoxy)phenyl]methyl}-1-(1-methylpiperidin-4-yl)-3-{[4-(2-methylpropoxy)phenyl]methyl}urea; Trifluoroacetic Acid] was tested. Which Ki did it give?
Answer: 251 nM

Question: How did the Ki turn out when CC(C)COc1ccc(CNC(=O)N(Cc2c(F)cccc2F)C2CCN(C)CC2)cc1 [Example 72] was run?
Answer: 15.8 nM

Question: Which Ki does the source give for CC(C)Oc1ccc(CNC(=O)N(Cc2ccc(F)c(F)c2)C2CCN(C)CC2)cc1 [Example 130, 1-[(3,4-difluorophenyl)methyl]-1-(1-methylpiperidin-4-yl)-3-{[4-(propan-2-yloxy)phenyl]methyl}urea; Trifluoroacetic Acid] here?
Answer: 79.4 nM

Question: CN1CCC(N(Cc2ccc(F)cc2F)C(=O)NCc2ccc([C@H](O)CO)cc2)CC1 (racemic) [Example 94, 1-[(2,4-difluorophenyl)methyl]-3-({4-[(1R)-1,2-dihydroxyethyl]phenyl}methyl)-1-(1-methylpiperidin-4-yl)urea; Trifluoroacetic Acid and 1-[(2,4-difluorophenyl)methyl]-3-({4-[(1S)-1,2-dihydroxyethyl]phenyl}methyl)-1-(1-methylpiperidin-4-yl)urea; Trifluoroacetic Acid] was tested. Which Ki did it give?
Answer: 100 nM

Question: CC(C)Oc1ccc(CNC(=O)N(Cc2ccc(F)c(F)c2F)C2CCN(C)CC2)cc1 [Example 135, 1-(1-methylpiperidin-4-yl)-3-{[4-(propan-2-yloxy)phenyl]methyl}-1-[(2,3,4-trifluorophenyl)methyl]urea; Trifluoroacetic Acid] was tested. Which Ki did it give?
Answer: 15.8 nM

Question: For CN1CCC(N(Cc2ccc(F)cc2F)C(=O)NCc2ccc(F)cc2OC(F)(F)F)CC1 [Example 99, 1-[(2,4-difluorophenyl)methyl]-3-{[4-fluoro-2-(trifluoromethoxy)phenyl]methyl}-1-(1-methylpiperidin-4-yl)urea; Trifluoroacetic Acid], which Ki is on record?
Answer: 79.4 nM

Question: Which Ki does the source give for O=C(O)C(F)(F)F.[2H]C1([2H])Oc2ccc(CNC(=O)N(Cc3ccc(F)cc3F)C3CCN(C)CC3)cc2C1([2H])[2H] [Example 159, 1-[(2,4-difluorophenyl)methyl]-3-{[2,3-dihydro(2,2,3,3-^2H4)-1-benzofuran-5-yl]methyl}-1-(1-methylpiperidin-4-yl)urea; Trifluoroacetic Acid] here?
Answer: 7.94 nM

Question: How did the Ki turn out when CN1CCC(N(Cc2ccc(F)cc2F)C(=O)NCc2cccc3c2CC(C)(C)O3)CC1 [Example 58] was run?
Answer: 158 nM

Question: With CC(C)Oc1ccc(CNC(=O)N(Cc2ccc(Cl)cc2Cl)C2CCN(C)CC2)cc1 [Example 106, 1-[(2,4-dichlorophenyl)methyl]-1-(1-methylpiperidin-4-yl)-3-{[4-(propan-2-yloxy)phenyl]methyl}urea; Trifluoroacetic Acid] as the compound, how does the Ki read?
Answer: 50.1 nM

Question: Which Ki does the source give for CC(C)COc1ccc(CNC(=O)N(Cc2ccc(Cl)cc2Cl)C2CCNCC2)cc1 [Example 111, 1-[(2,4-dichlorophenyl)methyl]-3-{[4-(2-methylpropoxy)phenyl]methyl}-1-(piperidin-4-yl)urea; Trifluoroacetic Acid] here?
Answer: 79.4 nM
